Data: patent US4996225A, “Tri-phenyl alkane derivatives and their oestrogenic, anti-oestrogenic and progestanic uses” (Farmos Group Ltd., priority 1982, dated 1991)

Tests used:
[1] = system: MCF-7 cell line (human mammary adenocarcinoma); assay: anti-tumour effect in vitro, growth of MCF-7 cell line (bioluminescence assay, intracellular ATP); format: cell-based; conditions: read-out: Antitumour effect against MCF-7 cell line (IC50 = concentration of compound where 50% inhibition of cell growth could be seen)
Procedure: The anti-tumour effect was studied in vitro as follows:
The amount of living cells after 4 h, 24 h and 48 h incubations were determined by bioluminescence assay (intracellular ATP determination).
inhibition of cell growth could be seen.

[2] = biological target: T1, oestrogen receptors (Rattus norvegicus, UniProt P06211); assay: affinity for oestrogen receptors, competition with 3H-17-β-estradiol in rat uterus cytosol (dextran-charcoal method); format: binding; conditions: read-out: Estrogen receptor affinity (concentration of compound where 50% competition (inhibition) with 3H-estradiol occurred)
T1 construct: rat uterus cytosol preparation; from tissue; host or cells: rat uterus cytosol
T1 sequence (P06211 1-600): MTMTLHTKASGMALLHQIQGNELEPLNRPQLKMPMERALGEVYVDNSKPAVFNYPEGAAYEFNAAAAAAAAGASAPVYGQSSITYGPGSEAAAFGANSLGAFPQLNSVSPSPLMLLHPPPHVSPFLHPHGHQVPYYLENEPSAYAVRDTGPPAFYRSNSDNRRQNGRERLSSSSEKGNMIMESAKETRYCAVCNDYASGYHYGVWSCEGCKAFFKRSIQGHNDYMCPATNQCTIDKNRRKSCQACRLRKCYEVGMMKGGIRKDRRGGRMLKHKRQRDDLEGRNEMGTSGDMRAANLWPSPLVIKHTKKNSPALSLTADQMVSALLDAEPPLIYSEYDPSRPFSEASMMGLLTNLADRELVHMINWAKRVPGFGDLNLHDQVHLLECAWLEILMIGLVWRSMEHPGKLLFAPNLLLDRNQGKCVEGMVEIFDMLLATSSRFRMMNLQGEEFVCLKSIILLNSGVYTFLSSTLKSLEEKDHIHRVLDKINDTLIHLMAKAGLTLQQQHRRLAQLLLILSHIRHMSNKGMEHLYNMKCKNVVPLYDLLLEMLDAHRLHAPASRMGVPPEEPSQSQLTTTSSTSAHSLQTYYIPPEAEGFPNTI
Procedure: The affinity of the new compounds for oestrogen receptors was determined by the ability to compete with ^3 H-labelled 17-β-estradiol in rat uterus cytosol preparation. After incubation, receptor-bound and receptor-unbound ligands were separated by a known dextrancharcoal method.

[3] = system: immature mouse uterus; assay: oestrogenic effect, uterus weight of immature mice; format: in vivo; conditions: for estrogenic effect of their own (in words): up to 5 mg/kg
Procedure: (§1) The oestrogen-antiestrogen (progesterone) effect of the new compounds in vivo was determined as follows: (1) The oestrogenic properties were determined by administering the new compounds, suspended in sesame oil, subcutaneously to 21 days old immature mice on three consecutive days. The mice were killed on the fourth day and the uterus was weighed. […] The weight correlates with the oestrogenic effect of the compound tested. […] In this case, the ability of the molecules to inhibit oestrogen-induced uterus weight increase was also investigated.

[4] = system: estradiol induced weight increase in immature mouse uterus; assay: antiestrogenic effect, inhibition of oestrogen-induced uterus weight increase in immature mice; format: in vivo; conditions: for inhibition of estradiol-induced uterus weight increase / inhibition of estradiol-induced uterus weight increase (in words): estradiol 5 μg/kg; for effect with estradiol (in words) / reduction in the weights of mice uterus, with estradiol: with estradiol 0.05 mg/kg
Procedure: as §1

[5] = system: DMBA-induced rat mammary adenocarcinomas; assay: antitumour effect in vivo against DMBA-induced rat mammary adenocarcinoma; conditions: for growth rate of the tumours (in words) / amount of new tumours (in words): rat, in vivo
Procedure: The anti-tumour effect was investigated in vivo against DMBA-induced rat mammary adenocarcinomas, transplantable mammary and ovarial adenocarcinoma and transplantable prostatic squamous cell carcinoma by the following methods:
Mammary adenocarcinomas were induced by DMBA in 35-40 days old female rats. […] Tumour size and numbers of tumours were evaluated twice a week. Tumour sizes in the control group, treated with solvent, were compared with the test groups.
The size refers to the width×height of the tumour. The growth rate is a difference between sizes compared with that of the first day of the treatment.

[6] = system: immature mouse uterus; assay: progestanic effect, uterus weight of immature mice (alone or with medroxyprogesterone acetate); format: in vivo; design: reduction in the weight of a mouse uterus, given alone / reduction in the weight of uterus with medroxyprogesterone / reduction in the weights of mice uterus, given alone: concentration or dose not given beside the values
[7] = with medroxyprogesterone 0.06 mg/kg

For `OCCC/C(=C(/c1ccccc1)c1ccc(O)cc1)c1ccccc1` [6, (E)-isomer], the IC50 [1] was 5 to 10 µM.

For `CN(C)CCOc1ccc([C@@]2(c3ccccc3)OCC[C@@H]2c2ccccc2)cc1` (relative stereo) [Compound 16, 2,3-diphenyl-2-[4-[2-(N,N-dimethylamino)-ethoxy]phenyl]-tetrahydrofuran], the IC50 [2] was 10 to 100 µM, the “estrogenic effect of their own (in words)” value [3] was “no estrogenic effect of their own” and the IC50 [1] was 5 to 10 µM.

Work on `OCC/C(=C(/c1ccccc1)c1ccc(O)cc1)c1ccccc1` [Compound 10, 1,2-diphenyl-1-(4-hydroxypheny)-1-buten-4-ol] yielded an IC50 [2] of 0.1 to 1 µM.

In the case of `CN(C)CCOc1ccc(/C(=C(/CCO)c2ccccc2)c2ccccc2)cc1` [Compound 20, 1,2-diphenyl-1-[4-[2-(N,N-dimethylamino)ethoxy]phenyl]-1-buten-4-ol], the “inhibition of estradiol-induced uterus weight increase” value ([4]; 5 mg/kg) is reported as “less than 33%”, the “inhibition of estradiol-induced uterus weight increase (in words)” value ([4]; 5 mg/kg) is reported as “inhibited the uterus weight increase in a statistically significant manner” and the “growth rate of the tumours (in words)” value [5] is reported as “only the growth rate of the tumours was reduced”. For the same compound, the “increase in uterus weight” value ([3]; 5 mg/kg) was “less than 30%” and the “increase in uterus weight (in words)” value ([3]; 5 mg/kg) was “statistically significant increase in uterus weight”.

In the case of `OCC/C(=C(\c1ccccc1)c1ccc(O)cc1)c1ccccc1` [Compound 11, 1,2-diphenyl-1-(4-hydroxyphenyl)-1-buten-4-ol], the “inhibition of estradiol induced effect in mouse uterus” value ([4]; 5 mg/kg) is reported as 31%, the “effect given alone: antiestrogenic (in words)” value ([4]; given alone) is reported as “anti-” and the “anti-estrogenic effect (in words)” value ([4]; immature mouse uterus) is reported as “possessed anti-estrogenic effects”. For the same compound, the “effect with estradiol (in words)” value [4] was “anti-”, the “reduction in the weights of mice uterus, with estradiol” value (“reduction … with estradiol” for short) [4] was 31% and the IC50 [2] was 1 to 10 µM. For the same compound, the “reduction in the weight of a mouse uterus, given alone” value ([6]; given alone) was 56%, the “reduction in the weights of mice uterus, given alone” value ([6]; given alone, Table 2A) was 56% and the “interaction with medroxyprogesterone (in words)” value ([6]; with medroxyprogesterone) was “synergistic effect with medroxyprogesterone”. The “effect with medroxyprogesterone (in words)” value [6, 7] was “no inhibition”, the “reduction in the weights of mice uterus with medroxyprogesterone, compared to control” value [6, 7] was 40% and the “estrogenic effect of their own (in words)” value [3] was “no estrogenic effect of their own”.

With `CN(C)CCOc1ccc([C@](O)(c2ccccc2)[C@H](CCO)c2ccccc2)cc1` (relative stereo) [Compound 17, 1,2-diphenyl-1-[4-[2-(N,N-dimethylamino)-ethoxy]phenyl]butane-1,4-diol] the IC50 [2] was 10 to 100 µM and the “estrogenic effect of their own (in words)” value [3] was “no estrogenic effect of their own”.

For `CC(=O)O[C@]1(C(C)=O)CC[C@H]2[C@@H]3C[C@H](C)C4=CC(=O)CC[C@]4(C)[C@H]3CC[C@@]21C` [Medroxyprogesterone acetate, reference compound], the “inhibition in the weight of immature mouse uterus” value ([6]; positive control) was “up to 40%”.

`CC(=O)OCC/C(=C(\c1ccccc1)c1ccc(OCCN(C)C)cc1)c1ccccc1` [Compound 19] was tested, and the “inhibition of estradiol-induced uterus weight increase (in words)” value ([4]; 5 mg/kg) was “did not inhibit”, the “growth rate of the tumours (in words)” value [5] was “only the growth rate of the tumours was reduced” and the “increase in uterus weight” value ([3]; 5 mg/kg) was no more than 30%. For the same compound, the IC50 [1] was 1 to 5 µM.

Work on `OCCC(c1ccc(O)cc1)C(O)(c1ccccc1)c1ccc(O)cc1` (stereo not shown) [Compound 8, 1-phenyl-1,2-bis(4-hydroxyphenyl)-butane-1,4-diol] yielded an IC50 [2] of 1 to 10 µM.

`CCN(CC)CCOc1ccc(/C(=C(/CCCl)c2ccccc2)c2ccccc2)cc1` [Compound 24, 4-chloro-1,2-diphenyl-1-[4-[2-(N,N-diethylamino)ethoxy]phenyl]-1-butene] was tested, and the “inhibition of estradiol-induced uterus weight increase” value ([4]; 5 mg/kg) was “less than 67%”, the “growth rate of the tumours (in words)” value [5] was “only the growth rate of the tumours was reduced” and the “increase in uterus weight” value ([3]; 5 mg/kg) was no more than 55%. It also gave an IC50 [1] of 1 to 5 µM.

In the case of `CN(C)CCOc1ccc(/C(=C(\CCCl)c2ccccc2)c2ccccc2)cc1` [Compound 18, 4-chloro-1,2-diphenyl-1-[4-[2-(N,N-dimethylamino)ethoxy]phenyl]-1-butene], the “effect with estradiol (in words)” value [4] is reported as “not anti-”, the “reduction … with estradiol” value [4] is reported as less than 10% and the “effect with medroxyprogesterone (in words)” value [6, 7] is reported as “no effect”. The “effect given alone: estrogenic (in words)” value [3] was “estrogenic”, the “increase in the weights of mice uterus, given alone” value [3] was 20% and the IC50 [1] was 1 to 5 µM.

`OCCCC(=C(c1ccccc1)c1ccc(O)cc1)c1ccccc1` [Compound 6, 1,2-diphenyl-1-(4-hydroxyphenyl)-1-penten-5-ol] was tested, and the IC50 [2] was 0.1 to 10 µM.

In the case of `OCC[C@H](c1ccccc1)[C@@](O)(c1ccccc1)c1ccc(O)cc1` (relative stereo) [Compound 1, 1,2-diphenyl-1-(4-hydroxyphenyl)-butane-1,4-diol], the IC50 [2] is reported as 1 to 10 µM.

With `ClCC/C(=C(/c1ccccc1)c1ccc(OCCN2CCCC2)cc1)c1ccccc1` [Compound 26, 4-chloro-1,2-diphenyl-1-[4-[2-(1-pyrrolidinyl)-ethoxy]phenyl]-1-butene] the “inhibition of estradiol-induced uterus weight increase” value ([4]; 5 mg/kg) was “less than 33%”, the “growth rate of the tumours (in words)” value [5] was “only the growth rate of the tumours was reduced” and the “increase in uterus weight” value ([3]; 5 mg/kg) was no more than 30%. It also gave an IC50 [1] of 1 to 5 µM.

For `ClCC[C@@H](c1ccccc1)[C@H](c1ccccc1)c1ccc(OCCN2CCCC2)cc1` (relative stereo) [Compound 27, 4-chloro-1,2-diphenyl-1-[4-[2-(1-pyrrolidinyl)-ethoxy]phenyl]-butane], the “inhibition of estradiol-induced uterus weight increase” value ([4]; 5 mg/kg) was “less than 33%”, the “amount of new tumours (in words)” value [5] was “the amount of new tumours decreased” and the “growth rate of the tumours (in words)” value [5] was “the growth rate of the tumours decreased”. For the same compound, the “increase in uterus weight” value ([3]; 5 mg/kg) was no more than 55% and the IC50 [1] was 1 to 5 µM.

In the case of `ClCC/C(=C(\c1ccccc1)c1ccc(OCCN2CCCC2)cc1)c1ccccc1` [Compound 25, 4-chloro-1,2-diphenyl-1-[4-[2-(1-pyrrolidinyl)-ethoxy]phenyl]-1-butene], the “inhibition of estradiol-induced uterus weight increase” value ([4]; 5 mg/kg) is reported as 68-100%, the “amount of new tumours (in words)” value [5] is reported as “the amount of new tumours decreased” and the “growth rate of the tumours (in words)” value [5] is reported as “the growth rate of the tumours decreased”. The “increase in uterus weight” value ([3]; 5 mg/kg) was no more than 55% and the IC50 [1] was less than 5 µM.

`ClCC[C@H](c1ccccc1)[C@H](c1ccccc1)c1ccc(OCCN2CCCC2)cc1` (relative stereo) [Compound 28, 4-chloro-1,2-diphenyl-1-[4-[2-(1-pyrrolidinyl)-ethoxy]phenyl]-butane] was tested, and the “inhibition of estradiol-induced uterus weight increase” value ([4]; 5 mg/kg) was 68-100%, the “amount of new tumours (in words)” value [5] was “the amount of new tumours decreased” and the “growth rate of the tumours (in words)” value [5] was “the growth rate of the tumours decreased”. The “increase in uterus weight” value ([3]; 5 mg/kg) was no more than 55% and the IC50 [1] was 5 to 10 µM.

For `CN(C)CCOc1ccc(/C(=C(\CCO)c2ccccc2)c2ccccc2)cc1` [Compound 12, 1,2-diphenyl-1-[4-[2-(N,N-dimethylamino)-ethoxy]phenyl]-1-buten-4-ol], the IC50 [2] was 10 to 100 µM, the “antitumour effect against DMBA-induced mammary cancer (in words)” value ([5]; compared with compound 7) was “Antitumour effect less than that of compound 7” and the IC50 [1] was 1 to 5 µM.

Compound `COc1ccc(C(=C(CCO)c2ccccc2)c2ccccc2)cc1` [Compound 3, 1,2-diphenyl-1-(4-methoxyphenyl)-1-buten-4-ol] has an IC50 [2] of 1 to 10 µM.

`Oc1ccc(C2CCOC2(c2ccccc2)c2ccc(O)cc2)cc1` (stereo not shown) [Compound 9, 2-phenyl-2,3-bis(4-hydroxyphenyl)-tetrahydrofuran] was tested, and the “effect with estradiol (in words)” value [4] was “not anti-”, the “reduction … with estradiol” value [4] was less than 10% and the IC50 [2] was 0.1 to 1 µM. For the same compound, the “effect given alone: estrogenic (in words)” value [3] was “estrogenic” and the “increase in the weights of mice uterus, given alone” value [3] was 50%.
